Among the data in ChEMBL document CHEMBL1201862, “PubChem BioAssay data set” (2004) are EC50, AC50 and IC50 values, retold here.

As usually defined, the EC50 is the midpoint of the concentration-response curve. The term AC50 denotes the concentration giving half of the maximal activity seen.

The structures appear in SMILES notation. The source made the active and inactive calls.

In test [1] the target is T1, Alkaline phosphatase, tissue-nonspecific isozyme (Homo sapiens, UniProt P05186).
T1 sequence (P05186 whole entry): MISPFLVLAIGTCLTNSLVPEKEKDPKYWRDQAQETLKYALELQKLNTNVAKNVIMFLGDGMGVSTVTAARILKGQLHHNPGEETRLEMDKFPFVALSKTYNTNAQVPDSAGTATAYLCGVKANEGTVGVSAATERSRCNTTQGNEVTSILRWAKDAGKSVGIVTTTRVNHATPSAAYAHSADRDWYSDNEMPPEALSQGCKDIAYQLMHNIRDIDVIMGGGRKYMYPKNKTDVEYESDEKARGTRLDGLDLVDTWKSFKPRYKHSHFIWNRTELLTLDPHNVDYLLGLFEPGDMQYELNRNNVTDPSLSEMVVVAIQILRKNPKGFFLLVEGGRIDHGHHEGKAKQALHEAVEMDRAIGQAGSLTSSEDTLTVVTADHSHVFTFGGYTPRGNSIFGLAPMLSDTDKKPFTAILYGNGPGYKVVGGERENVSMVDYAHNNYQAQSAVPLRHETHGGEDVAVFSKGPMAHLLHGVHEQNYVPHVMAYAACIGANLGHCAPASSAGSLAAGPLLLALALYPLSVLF

Test [2] relates to Salmon testes DNA. Description: acridine orange-DNA binding displacement – biochemical, fluorescence polarization, cherry-picked samples, set 2, artefact control for KSHV LANA DNA-binding inhibitor project, dose response (AID 504727). On the set-up: species or system Salmonidae. Background: In fluorescence polarisation assays a small probe gives low polarisation when free and higher when bound to something large.

Test [3] addresses Polyadenylate-binding protein 1 (Homo sapiens, UniProt P11940). In words: blockers of PABP interaction with poly(A) – biochemical, fluorescence polarization, […] (AID 2014).
Test [4] addresses Eukaryotic translation initiation factor 4H (Homo sapiens, UniProt Q15056). In words: eIF4H binding inhibition – biochemical, uHTS, fluorescence polarization, translation initiation inhibitor project, primary screen (AID 2012).
The target of test [5] is T2, Intestinal-type alkaline phosphatase (Homo sapiens, UniProt P09923). Description: human intestinal alkaline phosphatase activators, dose response, biochemical, luminescence, uHTS hits (AID 463120). The class given is functional.
Test [6] addresses T2, Intestinal-type alkaline phosphatase. In words: activation of human intestinal alkaline phosphatase – biochemical, luminescent, uHTS hits, set 2, dose response (AID 488817).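 Further: potency of activators that raise enzyme activity.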 In kind it is functional.
The target in test [7] is T1, Alkaline phosphatase, tissue-nonspecific isozyme. In words: activation of tissue-nonspecific alkaline phosphatase – biochemical, TNAP isozyme, human IAP uHTS hits, selectivity assay for human IAP activator project, dose response (AID 488886).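 Further: potency of compounds raising TNAP activity as a selectivity check on IAP activators.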 The class given is functional.
The target in test [8] is Intestinal-type alkaline phosphatase (Mus musculus, UniProt P24822). Description: PubChem AID 488874. In kind it is functional.
Test [9] deals with Neurotensin receptor type 1 (Homo sapiens, UniProt P30989). In kind it is functional.
The target of test [10] is Neuropeptide Y receptor type 2 (Homo sapiens, UniProt P49146). In words: Fluorescence-based counterscreen for agonists of NPY-Y1: cell-based high-throughput dose response assay for agonists of NPY-Y2. In kind it is functional. For orientation: Counterscreens check selectivity or assay interference.
The target in test [11] is Neuropeptide Y receptor type 1 (Homo sapiens, UniProt P25929). In words: Fluorescence-based dose response cell-based high-throughput screening assay for agonists of NPY-Y1. [Related pubchem assays: 1697 (Screening assay (NPY-Y1 agonists).), 1359 (Screening assay (NPY-Y2 potentiators or agonists).), 1304 (Screening assay (NPY-Y1 potentiators or agonists).), 1704 (Screening assay (CNGC inhibitors).), 1791 (Summary AID.)]. In kind it is functional.

The subject of test [12] is HEK293. In words: Fluorescence-based counterscreen for potentiators or agonists of NPY-Y1: cell-based high-throughput dose response assay for inhibitors of cyclic nucleotide gated ion channel (CNGC) activity. In this assay, the parental HEK293 cell line transfected with a cyclic-nucleotide gated ion channel (CNGC)-based cAMP sensor is used to measure inhibition of isoproterenol-induced CNGC …. In kind it is functional. Particulars: Homo sapiens.

The target of test [13] is T3, Caspase-6 (Homo sapiens, UniProt P55212).
T3 sequence (P55212 whole entry): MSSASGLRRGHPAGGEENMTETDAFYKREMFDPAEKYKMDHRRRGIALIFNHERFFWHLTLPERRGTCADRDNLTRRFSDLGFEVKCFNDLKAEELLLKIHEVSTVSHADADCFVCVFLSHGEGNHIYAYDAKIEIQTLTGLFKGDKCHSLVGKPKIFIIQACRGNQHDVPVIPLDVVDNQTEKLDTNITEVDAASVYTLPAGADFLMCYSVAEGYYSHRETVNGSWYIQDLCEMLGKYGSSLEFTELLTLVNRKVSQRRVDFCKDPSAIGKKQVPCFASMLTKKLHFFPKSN
In words: inhibition of CASP6 peptide cleavage – biochemical, VEID-R110 fluorescence, cherry-pick, dose response (AID 720632).

Test [14] addresses Prothrombin (Bos taurus, UniProt P00735). Description: thrombin protease inhibitors – biochemical, fluorescence polarization, uHTS hits, dose response (AID 602369). In kind it is functional.
The target in test [15] is 72 kDa type IV collagenase (Homo sapiens, UniProt P08253). In words: Dose Response validation of uHTS RPN11 inhibitor hits using a MMP-2 Fluorescence assay. In kind it is functional.
In test [16] the target is T4, Small ubiquitin-related modifier 1 (Homo sapiens, UniProt P63165). In words: SUMO1 protein interaction blockers, potency – biochemical, fluorescence polarization, uHTS hits, dose response (AID 624382). The class given is functional. The settings on record: read-out: IC50_Mean.
The nature of test [17]: viability loss in HepG2 liver cells – cell-based, ATP luminescence, cherry-pick, set 6, cytotoxicity control, dose response (AID 1053125). In kind it is functional.
For test [18], the target named is 26S proteasome non-ATPase regulatory subunit 14 (Homo sapiens, UniProt O00487). In words: inhibition of proteasome subunit RPN11 – biochemical, fluorescence polarization, uHTS hits, confirmation (AID 602368). In kind it is functional.
A short description of test [19]: cells. Particulars: A549.
Test [20] addresses T4, Small ubiquitin-related modifier 1. Description: SUMO1 protein-protein binding blockers, potency – biochemical, FRET, dose response (AID 624383). The class given is functional. Particulars: read-out: IC50_Mean.
In test [21] the target is cAMP-dependent protein kinase catalytic subunit alpha (Homo sapiens, UniProt P17612). In words: inhibition of human PKA kinase activity – biochemical, Caliper mobility shift, dry powder samples, dose response (AID 504583).
Test [22] addresses T5, Voltage-gated N-type calcium channel alpha-1B subunit/Amyloid beta A4 precursor protein-binding family A member 1 (Homo sapiens, UniProt Q00975+Q02410). In words: disruptors of Mint-PDZ/N-type channel peptide interaction – biochemical, HTRF, SAR follow-up (AID 2489). The class given is functional.
The target in test [23] is SUMO E1/E2 (Homo sapiens, UniProt P63279+Q9UBE0+Q9UBT2). In words: SAR analysis of SUMOylation using HTRF in an in-Vitro dose response assay. [Related pubchem assays (depositor defined):AID2006, AID2011, AID2018, AID2069, AID2658]. The class given is functional.
The target of test [24] is T5, Voltage-gated N-type calcium channel alpha-1B subunit/Amyloid beta A4 precursor protein-binding family A member 1. Description: disruptors of Mint-PDZ/N-type channel peptide interaction – biochemical, HTRF, set 2, SAR follow-up (AID 434980). In kind it is functional.
For test [25] the target is unchanged. The class given is protein assay.
The target of test [26] is DNA dC->dU-editing enzyme APOBEC-3G (Homo sapiens, UniProt Q9HC16). In words: Dose Response confirmation of small molecule APOBEC3G DNA Deaminase Inhibitors via a fluorescence-based single-stranded DNA deaminase assay. [Related pubchem assays (depositor defined):AID493012, AID493028]. In kind it is functional.
Test [27] deals with Glucose-6-phosphate 1-dehydrogenase (Homo sapiens, UniProt P11413). Description: inhibition of Homo sapiens G6PD, dose series – biochemical, fluorescence, selectivity assay for P. falciparum G6PD inhibitor project, dose response (AID 504792). The class given is functional.
For test [28], the target named is T5, Voltage-gated N-type calcium channel alpha-1B subunit/Amyloid beta A4 precursor protein-binding family A member 1. The class given is protein assay. The source holds these as a separate data set.
Test [29] has as its target Acyl-homoserine lactone acylase PvdQ (Pseudomonas aeruginosa (strain LESB58), UniProt Q9I194). In words: PvdQ acylase enzyme activity blockers – biochemical, fluorescence, plate reader and imaging, cherry-picks, dose response (AID 493231).
Test [30] concerns the target T6, Estrogen receptor (Homo sapiens, UniProt P03372).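 Further: potency for inhibiting coactivator peptide recruitment to the receptor.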
T6 sequence (P03372 whole entry): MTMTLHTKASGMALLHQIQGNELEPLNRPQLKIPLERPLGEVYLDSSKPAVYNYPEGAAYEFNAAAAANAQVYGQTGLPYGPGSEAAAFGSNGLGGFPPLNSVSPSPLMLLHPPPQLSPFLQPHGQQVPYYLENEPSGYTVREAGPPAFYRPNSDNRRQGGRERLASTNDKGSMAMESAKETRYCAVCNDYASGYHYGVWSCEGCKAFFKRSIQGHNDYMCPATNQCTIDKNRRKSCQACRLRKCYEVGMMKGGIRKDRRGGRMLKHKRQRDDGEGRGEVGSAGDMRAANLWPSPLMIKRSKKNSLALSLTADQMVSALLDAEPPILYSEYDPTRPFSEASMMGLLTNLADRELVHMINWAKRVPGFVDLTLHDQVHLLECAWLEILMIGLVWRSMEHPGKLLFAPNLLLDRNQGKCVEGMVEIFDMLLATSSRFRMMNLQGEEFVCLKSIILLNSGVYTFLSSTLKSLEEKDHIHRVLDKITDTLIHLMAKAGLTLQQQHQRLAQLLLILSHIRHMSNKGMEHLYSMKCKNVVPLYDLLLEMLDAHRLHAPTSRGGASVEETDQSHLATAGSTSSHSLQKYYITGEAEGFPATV

The target of test [31] is Bcl-2-like protein 10 (Homo sapiens, UniProt Q9HD36). In words: Bcl-B/TR3 peptide binding disruption – biochemical, fluorescence polarization, FITC-TR3 peptide, selectivity assay for Bfl-1 inhibitor project, primary screen (AID 748).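 Further: fluorescence polarization from a fluorescein-labelled TR3 peptide binding purified Bcl-B.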

T5 sequence (Q00975 whole entry): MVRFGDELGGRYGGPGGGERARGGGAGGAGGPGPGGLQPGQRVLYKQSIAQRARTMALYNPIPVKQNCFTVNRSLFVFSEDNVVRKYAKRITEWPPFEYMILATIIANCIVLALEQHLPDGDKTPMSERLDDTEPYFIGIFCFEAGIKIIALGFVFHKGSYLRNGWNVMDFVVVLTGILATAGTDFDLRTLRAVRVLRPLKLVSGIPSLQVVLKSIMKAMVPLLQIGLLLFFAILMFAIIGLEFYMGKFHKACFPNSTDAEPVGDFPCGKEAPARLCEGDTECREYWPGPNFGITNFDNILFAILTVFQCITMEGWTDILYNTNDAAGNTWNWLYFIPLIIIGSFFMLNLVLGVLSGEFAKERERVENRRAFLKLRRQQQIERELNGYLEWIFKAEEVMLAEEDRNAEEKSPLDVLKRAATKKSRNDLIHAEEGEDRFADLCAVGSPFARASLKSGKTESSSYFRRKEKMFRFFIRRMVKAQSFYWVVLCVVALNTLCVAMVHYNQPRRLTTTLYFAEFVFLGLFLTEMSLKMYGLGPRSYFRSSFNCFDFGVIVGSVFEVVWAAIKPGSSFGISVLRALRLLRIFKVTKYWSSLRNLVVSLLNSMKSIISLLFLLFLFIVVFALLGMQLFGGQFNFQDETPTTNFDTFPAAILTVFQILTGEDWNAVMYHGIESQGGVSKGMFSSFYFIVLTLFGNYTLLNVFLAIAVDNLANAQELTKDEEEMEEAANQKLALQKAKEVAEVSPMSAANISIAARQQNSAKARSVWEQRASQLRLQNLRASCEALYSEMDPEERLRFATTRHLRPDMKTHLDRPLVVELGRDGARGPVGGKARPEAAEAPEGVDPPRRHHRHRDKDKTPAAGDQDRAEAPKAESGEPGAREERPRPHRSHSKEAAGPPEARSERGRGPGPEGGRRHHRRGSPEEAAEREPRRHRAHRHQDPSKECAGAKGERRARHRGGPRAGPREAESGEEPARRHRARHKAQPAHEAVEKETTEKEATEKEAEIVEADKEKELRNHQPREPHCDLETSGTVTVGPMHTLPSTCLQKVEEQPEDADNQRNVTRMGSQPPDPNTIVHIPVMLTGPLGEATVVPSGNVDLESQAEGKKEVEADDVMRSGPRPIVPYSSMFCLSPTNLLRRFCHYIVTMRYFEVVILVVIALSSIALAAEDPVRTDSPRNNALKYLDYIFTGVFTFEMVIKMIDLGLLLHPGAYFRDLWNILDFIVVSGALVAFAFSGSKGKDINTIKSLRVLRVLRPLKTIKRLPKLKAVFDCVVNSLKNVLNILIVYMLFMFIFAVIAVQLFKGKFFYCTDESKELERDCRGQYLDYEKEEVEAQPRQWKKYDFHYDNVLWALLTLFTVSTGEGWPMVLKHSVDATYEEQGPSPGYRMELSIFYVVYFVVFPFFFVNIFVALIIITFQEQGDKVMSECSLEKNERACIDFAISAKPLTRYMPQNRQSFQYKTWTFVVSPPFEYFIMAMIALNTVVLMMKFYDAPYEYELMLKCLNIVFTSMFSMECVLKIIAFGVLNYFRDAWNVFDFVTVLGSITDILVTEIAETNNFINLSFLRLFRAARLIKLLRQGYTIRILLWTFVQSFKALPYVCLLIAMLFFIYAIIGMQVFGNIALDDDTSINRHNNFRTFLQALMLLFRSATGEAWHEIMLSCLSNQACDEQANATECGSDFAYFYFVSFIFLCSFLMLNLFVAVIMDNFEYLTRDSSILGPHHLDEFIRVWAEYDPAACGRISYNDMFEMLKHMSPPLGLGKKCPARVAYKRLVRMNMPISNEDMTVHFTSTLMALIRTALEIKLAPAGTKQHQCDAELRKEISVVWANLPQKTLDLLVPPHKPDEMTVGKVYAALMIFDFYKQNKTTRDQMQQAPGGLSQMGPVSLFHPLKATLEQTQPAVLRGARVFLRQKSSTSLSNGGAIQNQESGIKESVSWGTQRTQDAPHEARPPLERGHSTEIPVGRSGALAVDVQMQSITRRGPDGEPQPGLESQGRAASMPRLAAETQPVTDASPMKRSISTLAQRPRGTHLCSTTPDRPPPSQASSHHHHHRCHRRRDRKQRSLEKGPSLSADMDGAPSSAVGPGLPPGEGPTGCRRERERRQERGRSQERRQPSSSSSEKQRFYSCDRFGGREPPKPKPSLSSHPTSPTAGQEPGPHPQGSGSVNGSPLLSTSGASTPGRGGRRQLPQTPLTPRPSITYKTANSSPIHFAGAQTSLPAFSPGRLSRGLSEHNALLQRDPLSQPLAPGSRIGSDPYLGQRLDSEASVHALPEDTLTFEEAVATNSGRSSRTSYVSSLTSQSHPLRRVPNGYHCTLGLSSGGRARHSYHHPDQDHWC
T5 sequence (Q02410 whole entry): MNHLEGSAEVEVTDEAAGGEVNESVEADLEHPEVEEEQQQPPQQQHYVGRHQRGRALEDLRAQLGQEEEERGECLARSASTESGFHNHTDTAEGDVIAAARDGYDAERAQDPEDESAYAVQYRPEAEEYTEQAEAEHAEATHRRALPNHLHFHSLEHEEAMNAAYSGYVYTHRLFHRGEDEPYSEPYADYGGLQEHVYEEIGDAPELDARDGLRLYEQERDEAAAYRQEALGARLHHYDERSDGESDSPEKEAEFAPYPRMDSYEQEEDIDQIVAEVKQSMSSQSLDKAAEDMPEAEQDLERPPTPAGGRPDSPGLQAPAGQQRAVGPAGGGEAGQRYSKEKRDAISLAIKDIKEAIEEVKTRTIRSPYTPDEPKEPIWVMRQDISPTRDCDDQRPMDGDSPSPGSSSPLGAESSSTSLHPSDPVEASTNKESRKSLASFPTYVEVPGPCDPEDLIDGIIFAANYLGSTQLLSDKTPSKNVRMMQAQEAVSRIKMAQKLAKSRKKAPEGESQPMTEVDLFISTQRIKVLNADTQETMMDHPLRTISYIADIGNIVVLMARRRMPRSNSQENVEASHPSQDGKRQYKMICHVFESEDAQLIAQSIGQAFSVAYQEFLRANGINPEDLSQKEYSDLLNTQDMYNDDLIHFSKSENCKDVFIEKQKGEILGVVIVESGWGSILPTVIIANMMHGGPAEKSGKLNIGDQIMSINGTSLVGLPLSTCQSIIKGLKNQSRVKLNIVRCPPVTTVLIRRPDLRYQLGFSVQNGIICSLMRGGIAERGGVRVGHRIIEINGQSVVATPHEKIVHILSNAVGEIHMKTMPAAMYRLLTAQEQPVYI
T2 sequence (P09923 whole entry): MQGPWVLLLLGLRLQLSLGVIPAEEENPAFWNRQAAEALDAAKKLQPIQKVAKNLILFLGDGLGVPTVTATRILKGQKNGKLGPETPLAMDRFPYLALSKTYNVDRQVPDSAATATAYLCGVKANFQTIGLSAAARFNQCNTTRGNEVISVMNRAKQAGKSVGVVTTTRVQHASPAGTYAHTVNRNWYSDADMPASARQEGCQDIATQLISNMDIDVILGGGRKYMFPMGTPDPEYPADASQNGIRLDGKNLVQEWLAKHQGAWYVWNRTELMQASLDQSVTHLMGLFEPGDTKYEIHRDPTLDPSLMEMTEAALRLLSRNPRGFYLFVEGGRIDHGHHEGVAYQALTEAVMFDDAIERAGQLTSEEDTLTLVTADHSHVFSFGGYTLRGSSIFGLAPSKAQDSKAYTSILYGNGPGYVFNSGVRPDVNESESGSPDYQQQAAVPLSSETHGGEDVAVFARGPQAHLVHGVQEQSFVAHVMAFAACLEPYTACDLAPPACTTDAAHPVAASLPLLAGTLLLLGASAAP
T4 sequence (P63165 whole entry): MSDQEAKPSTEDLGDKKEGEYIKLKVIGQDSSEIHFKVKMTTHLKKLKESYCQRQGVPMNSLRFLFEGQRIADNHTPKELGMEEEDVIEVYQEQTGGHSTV
Neurotensin receptor type 1, sequence (P30989 whole entry): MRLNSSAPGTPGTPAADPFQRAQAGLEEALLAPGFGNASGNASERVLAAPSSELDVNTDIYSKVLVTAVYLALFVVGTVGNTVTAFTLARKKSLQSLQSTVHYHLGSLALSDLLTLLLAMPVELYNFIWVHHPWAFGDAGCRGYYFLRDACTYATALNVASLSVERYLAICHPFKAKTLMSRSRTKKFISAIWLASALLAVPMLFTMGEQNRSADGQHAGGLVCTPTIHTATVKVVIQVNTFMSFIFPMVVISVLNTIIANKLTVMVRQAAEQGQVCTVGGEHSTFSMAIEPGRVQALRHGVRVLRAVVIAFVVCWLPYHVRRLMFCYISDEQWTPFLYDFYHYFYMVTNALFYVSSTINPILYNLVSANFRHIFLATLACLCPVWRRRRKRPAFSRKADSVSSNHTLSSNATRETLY
Neuropeptide Y receptor type 2, sequence (P49146 whole entry): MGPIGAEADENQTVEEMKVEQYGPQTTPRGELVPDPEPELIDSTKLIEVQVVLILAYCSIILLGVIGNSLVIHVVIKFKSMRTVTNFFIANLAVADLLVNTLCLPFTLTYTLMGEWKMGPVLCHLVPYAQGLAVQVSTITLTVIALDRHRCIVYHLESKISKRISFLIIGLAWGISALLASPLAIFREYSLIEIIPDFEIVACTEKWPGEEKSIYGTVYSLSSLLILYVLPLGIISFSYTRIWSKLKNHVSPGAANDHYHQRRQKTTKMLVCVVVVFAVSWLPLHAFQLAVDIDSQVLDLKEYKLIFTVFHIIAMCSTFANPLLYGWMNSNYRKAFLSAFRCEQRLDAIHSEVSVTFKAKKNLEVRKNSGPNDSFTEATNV
26S proteasome non-ATPase regulatory subunit 14, sequence (O00487 whole entry): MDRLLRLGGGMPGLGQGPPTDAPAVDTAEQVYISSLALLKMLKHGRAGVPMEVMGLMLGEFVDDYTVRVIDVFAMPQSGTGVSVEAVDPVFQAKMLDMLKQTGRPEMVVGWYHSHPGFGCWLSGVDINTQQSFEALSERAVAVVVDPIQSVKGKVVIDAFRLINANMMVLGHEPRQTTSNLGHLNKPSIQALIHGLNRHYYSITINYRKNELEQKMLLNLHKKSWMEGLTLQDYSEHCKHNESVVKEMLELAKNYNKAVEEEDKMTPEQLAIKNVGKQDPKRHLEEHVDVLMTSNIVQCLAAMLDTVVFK

For the compound `Oc1ccccc1/C=N/Nc1cccc2cccnc12`, in test [1], the 50% effective concentration (EC50) is recorded as > 100 µM (not active).

`CSc1nc(SC(C)C(=O)O)c2c3c(sc2n1)COC(C)(C)C3` (stereo unspecified): in test [2], the AC50 was 90.3 µM (active).

Consider `CCN1C(NCC(C)C)=N[C@@H](c2cccc(C(F)(F)F)c2)C(C(=O)OC)=C1C`, for which the IC50 in test [3] was 10 µM (active); in test [4], > 100 µM (inactive).

On to `Cc1nc2c3ccccc3nc(NNC(=O)CCC(=O)NCCN3CCN(c4ccccc4)CC3)n2n1`, for which the EC50 was 8.73 µM (active) in test [5], 13.7 µM (active) in test [6] and 14.1 µM (active) in [7]. Also, the IC50 in test [8] is 49.8 µM (active).

Regarding `CC1CCC(C(C)C)C(OCC(O)CNC(C)c2ccccc2)C1` (stereo unspecified), the EC50 in test [9] was 21.5 µM (inactive); in test [10], > 35.4 µM (not active); in [11] it was > 35.4 µM (not active). In test [12], the IC50 was > 35.4 µM (not active).

With `Nc1nc(-c2cc(O)ccc2[N+](=O)[O-])cc(-c2ccccc2)c1[N+](=O)[O-]`, the AC50 in test [13] is 10.7 µM (active); in test [17], > 52 µM (inactive); in test [19] it was 42.5 µM (active); in [21], 1.11 µM (active). The IC50 was 53 µM (active) in test [14]; > 100 µM (inactive) in test [15]; > 66.6 µM (inactive) in [16]; 23.9 µM (active) in test [18]; 9.51 µM (active) in test [20].

As for `COc1ccccc1CNC(=O)c1cc(-c2ccco2)nc2ccccc12`, the IC50 in test [22] is 24.7 µM (active); in test [23], 2.51 µM (active); in [24], 22 µM (active).

In the case of `Cc1cc(C)c2c(=O)n(CC(=O)NC3CCCC3)sc2n1`, the IC50 is 7.6 µM (active) in [25], > 100 µM (inactive) in test [26], > 80 µM (inactive) in test [27] and 42.7 µM (active) in [28].

`O=C1NN(c2ccccc2)C(=O)C2C1C1C=CC2C12CC2` (stereo unspecified): in test [29], the AC50 was 18.8 µM (active).

For the compound `CN(C)S(=O)(=O)N(CC(=O)N(Cc1ccccc1)Cc1ccccc1)c1ccccc1`, the IC50 was 24.9 µM (active) in test [30] and 36.6 µM (active) in test [31].
